# Measured values reported in ChEMBL document CHEMBL3870329, “Synthesis of peptide nucleic acids (PNA) with a crosslinking agent to RNA and effective inhibition of dicer” (Bioorg Med Chem Lett, 2016).
# Activity calls are given as the source filed them. No cut-off for these calls is given here.
# Assays:
# [1] = system: Nucleic Acid; test: Binding affinity to synthetic 5'-FAM-labelled pre-miR-122 RNA site3 (unknown origin) assessed as inhibition of human dicer-mediated digestion of pre-miR-122 RNA by measuring heteroduplex formation preincubated with RNA for 2 days followed by dicer addition measured after 2 hrs by denaturing PAGE analysis relative to control; assay type: nucleic-acid assay; details: concentration not given here
# [2] = system: Nucleic Acid; test: Binding affinity to synthetic 5'-FAM-labelled pre-miR-122 RNA site3 (unknown origin) assessed as heteroduplex formation at 4 uM measured after 2 hrs by denaturing PAGE analysis relative to control; assay type: nucleic-acid assay
# [3] = system: Nucleic Acid; test: Binding affinity to synthetic 5'-FAM-labelled pre-miR-122 RNA site3 (unknown origin) assessed as human dicer-mediated digestion of pre-miR-122 RNA preincubated with RNA for 2 days followed by dicer addition measured after 2 hrs by denaturing PAGE analysis; assay type: nucleic-acid assay
# [4] = system: Nucleic Acid; test: Binding affinity to synthetic 5'-fluorescein-labelled pre-miR-122 RNA site3 (unknown origin) assessed as heteroduplex formation at 4 uM measured after 48 hrs by non-denaturing PAGE analysis relative to control; assay type: nucleic-acid assay
# [5] = system: Nucleic Acid; test: Binding affinity to synthetic 5'-FAM-labelled pre-miR-122 RNA site1 (unknown origin) assessed as heteroduplex formation at 4 uM measured after 2 hrs by denaturing PAGE analysis relative to control; assay type: nucleic-acid assay
# [6] = system: Nucleic Acid; test: Binding affinity to synthetic 5'-fluorescein-labelled pre-miR-122 RNA site1 (unknown origin) assessed as heteroduplex formation at 4 uM measured after 48 hrs by non-denaturing PAGE analysis relative to control; assay type: nucleic-acid assay
# [7] = system: Nucleic Acid; test: Binding affinity to synthetic 5'-FAM-labelled pre-miR-122 RNA site1 (unknown origin) assessed as inhibition of human dicer-mediated digestion of pre-miR-122 RNA preincubated with RNA for 2 days followed by dicer addition measured after 2 hrs by denaturing PAGE analysis relative to control; assay type: nucleic-acid assay; details: concentration not given here
# [8] = system: Nucleic Acid; test: Binding affinity to synthetic 5'-FAM-labelled pre-miR-122 RNA site1 (unknown origin) assessed as human dicer-mediated digestion of pre-miR-122 RNA preincubated with RNA for 2 days followed by dicer addition measured after 2 hrs by denaturing PAGE analysis; assay type: nucleic-acid assay
# [9] = system: Nucleic Acid; test: Binding affinity to synthetic 5'-fluorescein-labelled pre-miR-122 RNA site2 (unknown origin) assessed as heteroduplex formation at 4 uM measured after 48 hrs by non-denaturing PAGE analysis relative to control; assay type: nucleic-acid assay
# [10] = system: Nucleic Acid; test: Binding affinity to synthetic 5'-FAM-labelled pre-miR-122 RNA site2 (unknown origin) assessed as heteroduplex formation at 4 uM measured after 2 hrs by denaturing PAGE analysis relative to control; assay type: nucleic-acid assay
# [11] = system: Nucleic Acid; test: Binding affinity to synthetic 5'-FAM-labelled pre-miR-122 RNA site2 (unknown origin) assessed as human dicer-mediated digestion of pre-miR-122 RNA preincubated with RNA for 2 days followed by dicer addition measured after 2 hrs by denaturing PAGE analysis; assay type: nucleic-acid assay
# [12] = system: Nucleic Acid; test: Binding affinity to synthetic 5'-FAM-labelled pre-miR-122 RNA site2 (unknown origin) assessed as inhibition of human dicer-mediated digestion of pre-miR-122 RNA preincubated with RNA for 2 days followed by dicer addition measured after 2 hrs by denaturing PAGE analysis relative to control; assay type: nucleic-acid assay; details: concentration not given here
# [13] = Binding affinity to 5'-end FAM-tagged GACCAAUCCCAAUCUGGUU RNA (unknown origin) assessed as change in melting temperature at 1.5 uM measured after 5 mins by UV spectrophotometry
# [14] = Binding affinity to 5'-end FAM-tagged GACCAAACCCAAUCUGGUU RNA (unknown origin) assessed as change in melting temperature at 1.5 uM measured after 5 mins by UV spectrophotometry
# [15] = Binding affinity to 5'-end FAM-tagged GACCAAACCCAATCTGGTT DNA (unknown origin) assessed as change in melting temperature at 1.5 uM measured after 5 mins by UV spectrophotometry
# [16] = Binding affinity to 5'-end FAM-tagged GACCAAGCCCAAUCUGGUU RNA (unknown origin) assessed as change in melting temperature at 1.5 uM measured after 5 mins by UV spectrophotometry
# [17] = Binding affinity to 5'-end FAM-tagged GACCAACCCCAATCTGGTT DNA (unknown origin) assessed as change in melting temperature at 1.5 uM measured after 5 mins by UV spectrophotometry
# [18] = Binding affinity to 5'-end FAM-tagged GACCAAGCCCAATCTGGTT DNA (unknown origin) assessed as change in melting temperature at 1.5 uM measured after 5 mins by UV spectrophotometry
# [19] = Binding affinity to 5'-end FAM-tagged GACCAACCCCAAUCUGGUU RNA (unknown origin) assessed as change in melting temperature at 1.5 uM measured after 5 mins by UV spectrophotometry
# [20] = Binding affinity to 5'-end FAM-tagged GACCAATCCCAATCTGGTT DNA (unknown origin) assessed as change in melting temperature at 1.5 uM measured after 5 mins by UV spectrophotometry
# [21] = system: unidentified; test: Binding affinity to 5'-end FAM-tagged GACTCAATCCCAATCTGGTT DNA (unknown origin) assessed as melting temperature at 1.5 uM measured after 5 mins by UV spectrophotometry (reference value: 79.2 degC)
# [22] = system: Nucleic Acid; test: Binding affinity to 5'-end FAM-tagged GACCCAAUCCCAAUCUGGUU RNA (unknown origin) assessed as induction of crosslinking by measuring heteroduplex formation at 4 uM measured after 24 hrs by bromophenol blue staining-based denaturing PAGE analysis relative to control; assay type: nucleic-acid assay
# [23] = system: Nucleic Acid; test: Binding affinity to 5'-end FAM-tagged GACACAAUCCCAAUCUGGUU RNA (unknown origin) assessed as induction of crosslinking by measuring heteroduplex formation at 4 uM measured after 24 hrs by bromophenol blue staining-based denaturing PAGE analysis relative to control; assay type: nucleic-acid assay
# [24] = system: Nucleic Acid; test: Binding affinity to 5'-end FAM-tagged GACCCAATCCCAATCTGGTT DNA (unknown origin) assessed as induction of crosslinking by measuring heteroduplex formation at 4 uM measured after 24 hrs by bromophenol blue staining-based denaturing PAGE analysis relative to control; assay type: nucleic-acid assay
# [25] = system: Nucleic Acid; test: Binding affinity to 5'-end FAM-tagged GACACAATCCCAATCTGGTT DNA (unknown origin) assessed as induction of crosslinking by measuring heteroduplex formation at 4 uM measured after 24 hrs by bromophenol blue staining-based denaturing PAGE analysis relative to control; assay type: nucleic-acid assay
# [26] = system: Nucleic Acid; test: Binding affinity to 5'-end FAM-tagged GACUCAAUCCCAAUCUGGUU RNA (unknown origin) assessed as induction of crosslinking by measuring heteroduplex formation at 4 uM measured after 24 hrs by bromophenol blue staining-based denaturing PAGE analysis relative to control; assay type: nucleic-acid assay
# [27] = system: unidentified; test: Binding affinity to 5'-end FAM-tagged GACUCAAUCCCAAUCUGGUU RNA (unknown origin) assessed as melting temperature at 1.5 uM measured after 5 mins by UV spectrophotometry (reference value: 82.2 degC)
# [28] = system: Nucleic Acid; test: Binding affinity to 5'-end FAM-tagged GACTCAATCCCAATCTGGTT DNA (unknown origin) assessed as induction of crosslinking by measuring heteroduplex formation at 4 uM measured after 24 hrs by bromophenol blue staining-based denaturing PAGE analysis relative to control; assay type: nucleic-acid assay
# [29] = system: Nucleic Acid; test: Binding affinity to 5'-end FAM-tagged GACGCAATCCCAATCTGGTT DNA (unknown origin) assessed as induction of crosslinking by measuring heteroduplex formation at 4 uM measured after 24 hrs by bromophenol blue staining-based denaturing PAGE analysis relative to control; assay type: nucleic-acid assay
# [30] = Binding affinity to 5'-end FAM-tagged GACTCAATCCCAATCTGGTT DNA (unknown origin) assessed as crosslinked adduct formation by MALDI-TOF MS analysis
# [31] = system: Nucleic Acid; test: Binding affinity to 5'-end FAM-tagged GACGCAAUCCCAAUCUGGUU RNA (unknown origin) assessed as induction of crosslinking by measuring heteroduplex formation at 4 uM measured after 24 hrs by bromophenol blue staining-based denaturing PAGE analysis relative to control; assay type: nucleic-acid assay
smiles,measurement,setting,value
C=Cc1nc(N)nc2c1ncn2CC(=O)N(CCN)CC(=O)NCCN(CC(=O)NCCN(CC(=O)NCCN(CC(=O)NCCN(CC(=O)NCCN(CC(=O)NCCN(CC(=O)NCCN(CC(=O)NCCN(CC(=O)NCCN(CC(=O)NCCN(CC(=O)NCCN(CC(=O)NCCN(CC(=O)N[C@@H](CCCNC(=N)N)C(=O)O)C(=O)Cn1ccc(N)nc1=O)C(=O)Cn1cnc2c(N)ncnc21)C(=O)Cn1ccc(N)nc1=O)C(=O)Cn1cnc2c(N)ncnc21)C(=O)Cn1cnc2c(=O)[nH]c(N)nc21)C(=O)Cn1cnc2c(N)ncnc21)C(=O)Cn1cc(C)c(=O)[nH]c1=O)C(=O)Cn1cc(C)c(=O)[nH]c1=O)C(=O)Cn1cc(C)c(=O)[nH]c1=O)C(=O)Cn1cnc2c(=O)[nH]c(N)nc21)C(=O)Cn1cnc2c(N)ncnc21)C(=O)Cn1cc(C)c(=O)[nH]c1=O,inhibition,[1],76%
same,Activity,[2],72%
same,Activity,[3],24%
same,Activity,[4],85%
C=Cc1nc(N)nc2c1ncn2CC(=O)N(CCN)CC(=O)NCCN(CC(=O)NCCN(CC(=O)NCCN(CC(=O)NCCN(CC(=O)NCCN(CC(=O)NCCN(CC(=O)NCCN(CC(=O)NCCN(CC(=O)NCCN(CC(=O)NCCN(CC(=O)NCCN(CC(=O)NCCN(CC(=O)N[C@@H](CCCNC(=N)N)C(=O)O)C(=O)Cn1cnc2c(N)ncnc21)C(=O)Cn1cc(C)c(=O)[nH]c1=O)C(=O)Cn1cnc2c(N)ncnc21)C(=O)Cn1cnc2c(=O)[nH]c(N)nc21)C(=O)Cn1cc(C)c(=O)[nH]c1=O)C(=O)Cn1cc(C)c(=O)[nH]c1=O)C(=O)Cn1cc(C)c(=O)[nH]c1=O)C(=O)Cn1cnc2c(=O)[nH]c(N)nc21)C(=O)Cn1ccc(N)nc1=O)C(=O)Cn1cnc2c(=O)[nH]c(N)nc21)C(=O)Cn1cnc2c(=O)[nH]c(N)nc21)C(=O)Cn1cc(C)c(=O)[nH]c1=O,Activity,[5],8%
same,Activity,[6],10%
same,inhibition,[7],10%
same,Activity,[8],90%
C=Cc1nc(N)nc2c1ncn2CC(=O)N(CCN)CC(=O)NCCN(CC(=O)NCCN(CC(=O)NCCN(CC(=O)NCCN(CC(=O)NCCN(CC(=O)NCCN(CC(=O)NCCN(CC(=O)NCCN(CC(=O)NCCN(CC(=O)NCCN(CC(=O)NCCN(CC(=O)NCCN(CC(=O)N[C@@H](CCCNC(=N)N)C(=O)O)C(=O)Cn1ccc(N)nc1=O)C(=O)Cn1ccc(N)nc1=O)C(=O)Cn1cc(C)c(=O)[nH]c1=O)C(=O)Cn1ccc(N)nc1=O)C(=O)Cn1cnc2c(N)ncnc21)C(=O)Cn1ccc(N)nc1=O)C(=O)Cn1cnc2c(N)ncnc21)C(=O)Cn1ccc(N)nc1=O)C(=O)Cn1cc(C)c(=O)[nH]c1=O)C(=O)Cn1cnc2c(=O)[nH]c(N)nc21)C(=O)Cn1cc(C)c(=O)[nH]c1=O)C(=O)Cn1cc(C)c(=O)[nH]c1=O,Activity,[9],41%
same,Activity,[10],15%
same,Activity,[11],59%
same,inhibition,[12],41%
CSCCc1nc(N)nc2c1ncn2CC(=O)N(CCNC(=O)CN(CCNC(=O)CN(CCNC(=O)CN(CCNC(C)=O)C(=O)Cn1cnc2c(=O)[nH]c(N)nc21)C(=O)Cn1cc(C)c(=O)[nH]c1=O)C(=O)Cn1cc(C)c(=O)[nH]c1=O)CC(=O)NCCN(CC(=O)NCCN(CC(=O)NCCN(CC(=O)NCCN(CC(=O)NCCN(CC(=O)NCCN(CC(=O)NCCN(CC(=O)N[C@@H](CCCNC(=N)N)C(=O)N[C@@H](CCCNC(=N)N)C(=O)NCC(N)=O)C(=O)Cn1cnc2c(=O)[nH]c(N)nc21)C(=O)Cn1cnc2c(N)ncnc21)C(=O)Cn1cc(C)c(=O)[nH]c1=O)C(=O)Cn1cc(C)c(=O)[nH]c1=O)C(=O)Cn1cnc2c(=O)[nH]c(N)nc21)C(=O)Cn1cnc2c(=O)[nH]c(N)nc21)C(=O)Cn1cnc2c(=O)[nH]c(N)nc21,ΔTm,[13],-5.9 °C
same,ΔTm,[14],-10.1 °C
same,ΔTm,[15],-10.6 °C
same,ΔTm,[16],-11 °C
same,ΔTm,[17],-10.3 °C
same,ΔTm,[18],-11 °C
same,ΔTm,[19],-6.1 °C
same,ΔTm,[20],-9.9 °C
C=Cc1nc(N)nc2c1ncn2CC(=O)N(CCNC(C)=O)CC(=O)NCCN(CC(=O)NCCN(CC(=O)NCCN(CC(=O)NCCN(CC(=O)NCCN(CC(=O)NCCN(CC(=O)NCCN(CC(=O)NCCN(CC(=O)NCCN(CC(=O)NCCN(CC(=O)NCCN(CC(=O)N[C@@H](CCCNC(=N)N)C(=O)N[C@@H](CCCNC(=N)N)C(=O)NCC(N)=O)C(=O)Cn1cnc2c(=O)[nH]c(N)nc21)C(=O)Cn1cnc2c(N)ncnc21)C(=O)Cn1cc(C)c(=O)[nH]c1=O)C(=O)Cn1cc(C)c(=O)[nH]c1=O)C(=O)Cn1cnc2c(=O)[nH]c(N)nc21)C(=O)Cn1cnc2c(=O)[nH]c(N)nc21)C(=O)Cn1cnc2c(=O)[nH]c(N)nc21)C(=O)Cn1cnc2c(N)ncnc21)C(=O)Cn1cc(C)c(=O)[nH]c1=O)C(=O)Cn1cc(C)c(=O)[nH]c1=O)C(=O)Cn1cnc2c(=O)[nH]c(N)nc21,Tm,[21],80.3 °C
same,Activity,[22],2%
same,Activity,[23],0%
same,Activity,[24],2%
same,Activity,[25],1%
same,Activity,[26],62%
same,Tm,[27],84.5 °C
same,Activity,[28],52%
same,Activity,[29],3%
same,Activity,[30],Active
same,Activity,[31],2%
